pIC50: −log10 of the molar value.
What follows are compounds tested against phosphorylated active hERK2 enzyme (Homo sapiens (Human), UniProt P28482). Conditions: read-out: ERK2 IC50; IMAP-FP assay; 0.5 nM hERK2, 30 μM ATP; 10 point titration, 3 μM starting concentration.
phosphorylated active hERK2 enzyme, sequence (P28482 whole entry): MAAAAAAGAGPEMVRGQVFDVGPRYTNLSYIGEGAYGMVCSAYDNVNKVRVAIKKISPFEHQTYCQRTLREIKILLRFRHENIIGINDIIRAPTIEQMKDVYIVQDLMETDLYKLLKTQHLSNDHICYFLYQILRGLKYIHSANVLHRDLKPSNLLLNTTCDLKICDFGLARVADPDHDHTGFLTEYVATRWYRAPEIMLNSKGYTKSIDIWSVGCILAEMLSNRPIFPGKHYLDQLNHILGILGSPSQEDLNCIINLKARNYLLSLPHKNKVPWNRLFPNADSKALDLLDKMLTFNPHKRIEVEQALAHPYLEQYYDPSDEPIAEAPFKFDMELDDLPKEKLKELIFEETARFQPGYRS
In the case of Cc1cc(-n2ncc3cc(NC(=O)NC4CNCC4c4ccccc4)ncc32)ccn1 (stereo not shown) [Example 63, 1-[1-(2-methylpyridin-4-yl)-1H-pyrazolo[3,4-c]pyridin-5-yl]-3-(4-phenylpyrrolidin-3-yl)urea], the pIC50 was 7.26. Cc1cc(-n2ncc3cc(NC(=O)NCc4cnn5ccccc45)ncc32)ccn1 [Example 64, 1-[1-(2-methylpyridin-4-yl)-1H-pyrazolo[3,4-c]pyridin-5-yl]-3-(pyrazolo[1,5-a]pyridin-3-ylmethyl)urea] gave a pIC50 of 7.15. For Cc1cc(-n2ncc3cc(NC(=O)N[C@H](CO)c4ccccc4)ncc32)ccn1 [Example 65, 1-[(1S)-2-hydroxy-1-phenylethyl]-3-[1-(2-methylpyridin-4-yl)-1H-pyrazolo[3,4-c]pyridin-5-yl]urea], the pIC50 was 8.99. With Cc1cc(-n2ncc3cc(NC(=O)NC(C)c4ccc(S(C)(=O)=O)cc4)ncc32)ccn1 (stereo not shown) [Example 66, 1-[1-(2-methylpyridin-4-yl)-1H-pyrazolo[3,4-c]pyridin-5-yl]-3-{1-[4-(methylsulfonyl)phenyl]ethyl}urea] the pIC50 was 8.11. Compound Cc1cc(-n2ncc3cc(NC(=O)NC4CNC(c5ccccc5)C4)ncc32)ccn1 (stereo not shown) [Example 67, 1-[1-(2-methylpyridin-4-yl)-1H-pyrazolo[3,4-c]pyridin-5-yl]-3-(5-phenylpyrrolidin-3-yl)urea] has a pIC50 of 6.70. With Cc1cc(-n2ncc3cc(NC(=O)NCc4sc(C(C)C)nc4C)ncc32)ccn1 [Example 68, 1-{[4-methyl-2-(1-methylethyl)-1,3-thiazol-5-yl]methyl}-3-[1-[2-methylpyridin-4-yl)-1H-pyrazolo[3,4-c]pyridin-5-yl]urea] the pIC50 was 6.15. With Cc1cc(-n2ncc3cc(NC(=O)NCC4(c5ccccc5)CCOC4)ncc32)ccn1 (stereo not shown) [Example 69, 1-[1-(2-methylpyridin-4-yl)-1H-pyrazolo[3,4-c]pyridin-5-yl]-3-[(3-phenyltetrahydrofuran-3-yl)methyl]urea] the pIC50 was 7.75. With Cc1cc(-n2ncc3cc(NC(=O)NCCN4CC5CC4CN5c4ccccc4)ncc32)ccn1 (stereo not shown) [Example 70, 1-[1-(2-methylpyridin-4-yl)-1H-pyrazolo[3,4-c]pyridin-5-yl]-3-[2-(5-phenyl-2,5-diazabicyclo[2.2.1]hept-2-yl)ethyl]urea] the pIC50 was 7.77. Compound Cc1cc(-n2ncc3cc(NC(=O)NC(CCN(C)C)c4ccccn4)ncc32)ccn1 (stereo not shown) [Example 72, 1-[3-(dimethylamino)-1-pyridin-2-ylpropyl]-3-[1-(2-methylpyridin-4-yl)-1H-pyrazolo[3,4-c]pyridin-5-yl]urea] has a pIC50 of 7.99. Compound Cc1cc(-n2ncc3cc(NC(=O)NCC(c4ccccn4)N4CCOCC4)ncc32)ccn1 (stereo not shown) [Example 73, 1-[1-(2-methylpyridin-4-yl)-1H-pyrazolo[3,4-c]pyridin-5-yl]-3-(2-morpholin-4-yl-2-pyridin-2-ylethyl)urea] has a pIC50 of 6.61. For Cc1cc(-n2ncc3cc(NC(=O)NCc4ccc5c(c4)CC(=O)N5)ncc32)ccn1 [Example 74, 1-[1-(2-methylpyridin-4-yl)-1H-pyrazolo[3,4-c]pyridin-5-yl]-3-[(2-oxo-2,3-dihydro-1H-indol-5-yl)methyl]urea], the pIC50 was 7.14. For Cc1cc(-n2ncc3cc(NC(=O)NCc4cccc(-n5cccn5)c4)ncc32)ccn1 [Example 75], the pIC50 was 8.28. Cc1cc(-n2ncc3cc(NC(=O)NCc4ccc(-n5cccn5)cc4)ncc32)ccn1 [Example 76, 1-[1-(2-methylpyridin-4-yl)-1H-pyrazolo[3,4-c]pyridin-5-yl]-3-[4-(1H-pyrazol-1-yl)benzyl]urea] gave a pIC50 of 5.96. Cc1cc(-n2ncc3cc(NC(=O)NC45CC6CC(CC(O)(C6)C4)C5)ncc32)ccn1 [Example 77, 1-(3-hydroxytricyclo[3.3.1.1~3,7~]dec-1-yl)-3-[1-(2-methylpyridin-4-yl)-1H-pyrazolo[3,4-c]pyridin-5-yl)urea] gave a pIC50 of 5.73. Cc1cc(-n2ncc3cc(NC(=O)NC4CCN(c5ccccc5)CC4)ncc32)ccn1 [Example 78, 1-[1-(2-methylpyridin-4-yl)-1H-pyrazolo[3,4-c]pyridin-5-yl]-3-(1-phenylpiperidin-4-yl)urea] was tested, and the pIC50 was 5.76. Cc1cc(-n2ncc3cc(NC(=O)NCC4CN(c5ccccc5)CCO4)ncc32)ccn1 (stereo not shown) [Example 79, 1-[1-(2-methylpyridin-4-yl)-1H-pyrazolo[3,4-c]pyridin-5-yl]-3-[(4-phenylmorpholin-2-yl)methyl]urea] showed a pIC50 of 7.58. With Cc1cc(-n2ncc3cc(NC(=O)NC4CC(=O)Nc5ccccc54)ncc32)ccn1 (stereo not shown) [Example 80, 1-[1-(2-methylpyridin-4-yl)-1H-pyrazolo[3,4-c]pyridin-5-yl]-3-(2-oxo-1,2,3,4-tetrahydroquinolin-4-yl)urea] the pIC50 was 6.71. Cc1cc(-n2ncc3cc(NC(=O)N[C@@H](c4ccccc4)C(F)F)ncc32)ccn1 [Example 81, 1-[(1S)-2,2-difluoro-1-phenylethyl]-3-[1-(2-methylpyridin-4-yl)-1H-pyrazolo[3,4-c]pyridin-5-yl)urea] was tested, and the pIC50 was 6.04. For Cc1cc(-n2ncc3cc(NC(=O)NC4CCCN(c5ccccc5)C4)ncc32)ccn1 (stereo not shown) [Example 82, 1H-pyrazolo[3,4-c]pyridin-1-[1-(2-methylpyridin-4-yl)-5-yl]-3-(1-phenylpiperidin-3-yl)urea], the pIC50 was 8.12. With Cc1cc(-n2ncc3cc(NC(=O)NCCC4CCOC4)ncc32)ccn1 (stereo not shown) [Example 83, 1-[1-(2-methylpyridin-4-yl)-1H-pyrazolo[3,4-c]pyridin-5-yl]-3-[2-(tetrahydrofuran-3-yl)ethyl]urea] the pIC50 was 7.19. For Cc1cc(-n2ncc3cc(NC(=O)NCc4ccc5c(c4)CNC5=O)ncc32)ccn1 [Example 84, 1-[1-(2-methylpyridin-4-yl)-1H-pyrazolo[3,4-c]pyridin-5-yl]-3-[(1-oxo-2,3-dihydro-1H-isoindol-5-yl)methyl]urea], the pIC50 was 7.76. Cc1cc(-n2ncc3cc(NC(=O)NCCOc4ccc(F)cc4)ncc32)ccn1 [Example 85, 1-[2-(4-fluorophenoxy)ethyl]-3-[1-(2-methylpyridin-4-yl)-1H-pyrazolo[3,4-c]pyridin-5-yl)urea] gave a pIC50 of 7.80. Work on Cc1cc(-n2ncc3cc(NC(=O)NCc4ccc(C(C)(C)O)cc4)ncc32)ccn1 [Example 86, 1-[4-(1-hydroxy-1-methylethyl)benzyl]-3-[1-(2-methylpyridin-4-yl)-1H-pyrazolo[3,4-c]pyridin-5-yl)urea] yielded a pIC50 of 6.14. For Cc1cc(-n2ncc3cc(NC(=O)NCCOc4ccccc4F)ncc32)ccn1 [Example 87, 1-[2-(2-fluorophenoxy)ethyl]-3-[1-(2-methylpyridin-4-yl)-1H-pyrazolo[3,4-c]pyridin-5-yl)urea], the pIC50 was 8.20. Cc1cc(-n2ncc3cc(NC(=O)NCCC(F)(F)F)ncc32)ccn1 [Example 88, 1-[1-(2-methylpyridin-4-yl)-1H-pyrazolo[3,4-c]pyridin-5-yl]-3-(3,3,3-trifluoropropyl)urea] showed a pIC50 of 7.33. Cc1cc(-n2ncc3cc(NC(=O)N[C@H](CCO)c4ccccc4)ncc32)ccn1 [Example 89, 1-[(1R)-3-hydroxy-1-phenylpropyl]-3-[1-(2-methylpyridin-4-yl)-1H-pyrazolo[3,4-c]pyridin-5-yl)urea] gave a pIC50 of 9.09. With COC[C@@H](NC(=O)Nc1cc2cnn(-c3ccnc(C)c3)c2cn1)c1ccccc1 [Example 90, 1-[(1S)-2-methoxy-1-phenylethyl]-3-[1-(2-methylpyridin-4-yl)-1H-pyrazolo[3,4-c]pyridin-5-yl)urea] the pIC50 was 9.17. Cc1cc(-n2ncc3cc(NC(=O)NCc4ccc(N5CCCC5=O)cc4)ncc32)ccn1 [Example 91, 1-[1-(2-methylpyridin-4-yl)-1H-pyrazolo[3,4-c]pyridin-5-yl]-3-[4-(2-oxopyrrolidin-1-yl)benzyl]urea] was tested, and the pIC50 was 6.48. Compound CNC(=O)c1ccc(CNC(=O)Nc2cc3cnn(-c4ccnc(C)c4)c3cn2)cc1 [Example 92, N-methyl-4-[({[1-(2-methylpyridin-4-yl)-1H-pyrazolo[3,4-c]pyridin-5-yl]carbamoyl}amino)methyl] benzamide] has a pIC50 of 6.10. Cc1cc(-n2ncc3cc(NC(=O)NCc4cccc(S(C)(=O)=O)c4)ncc32)ccn1 [Example 93, 1-[1-(2-methylpyridin-4-yl)-1H-pyrazolo[3,4-c]pyridin-5-yl]-3-[3-(methylsulfonyl)-benzyl]urea] was tested, and the pIC50 was 8.84. Cc1cc(-n2ncc3cc(NC(=O)NCc4cccc(-c5ncco5)c4)ncc32)ccn1 [Example 94, 1-[1-(2-methylpyridin-4-yl)-1H-pyrazolo[3,4-c]pyridin-5-yl]-3-[3-(1,3-oxazol-2-yl)benzyl]urea] was tested, and the pIC50 was 7.88. In the case of Cc1cc(-n2ncc3cc(NC(=O)NCCOCc4ccccc4)ncc32)ccn1 [Example 95, 1-[2-(benzyloxy)ethyl]-3-[1-(2-methylpyridin-4-yl)-1H-pyrazolo[3,4-c]pyridin-5-yl]urea], the pIC50 was 8.27. Compound Cc1cc(-n2ncc3cc(NC(=O)NCCNCc4ccccc4)ncc32)ccn1 [Example 96, 1-[2-(benzylamino)ethyl]-3-[1-(2-methylpyridin-4-yl)-1H-pyrazolo[3,4-c]pyridin-5-yl]urea] has a pIC50 of 7.72. For CNC(=O)c1cccc(CNC(=O)Nc2cc3cnn(-c4ccnc(C)c4)c3cn2)c1 [Example 97, N-methyl-3-[({[1-(2-methylpyridin-4-yl)-1H-pyrazolo[3,4-c]pyridin-5-yl]carbamoyl}amino)methyl] benzamide], the pIC50 was 8.47. Work on Cc1cc(-n2ncc3cc(NC(=O)NCc4cccc(-c5ccon5)c4)ncc32)ccn1 [Example 98, 1-(3-isoxazol-3-ylbenzyl)-3-[1-(2-methylpyridin-4-yl)-1H-pyrazolo[3,4-c]pyridin-5-yl]urea] yielded a pIC50 of 8.77. Cc1cc(-n2ncc3cc(NC(=O)NCC4Cc5ccccc5N(C)C4)ncc32)ccn1 (stereo not shown) [Example 99, 1-[1-(2-methylpyridin-4-yl)-1H-pyrazolo[3,4-c]pyridin-5-yl]-3-[(1-methyl-1,2,3,4-tetrahydroquinolin-3-yl)methyl]urea] gave a pIC50 of 8.64. Cc1cc(-n2ncc3cc(NC(=O)NCC4(N(C)C)CCCCC4)ncc32)ccn1 [Example 100, 1-{[1-(dimethylamino)cyclohexyl]methyl}-3-[1-(2-methylpyridin-4-yl)-1H-pyrazolo[3,4-c]pyridin-5-yl)urea] showed a pIC50 of 5.92.
